# From patent US10105357B2, “Indication of antibiotic drugs for preparation of cancer inhibition pharmaceutical composition” (LAUNX BIOMEDICAL CO., LTD., priority 2014, dated 2018)
# Structures can show the parent of a compound that is named as a salt. Where two headings read alike, the source gives them in different places.
# How the values were obtained:
# cancer cell lines = assay: Cell viability analysis (WST-1) on cancer cell lines; assay type: cell-based, human; settings: drug 10 μM, 72 hours, WST-1; Table 3
# [1] = test system: HI650 (Lung Adenocarcinoma); assay: Cell viability analysis, lung cancer HI650; assay type: cell-based, human; settings: Homo sapiens, NCI-H1650, 72 h
# [2] = test system: A549 (Lung Adenocarcinoma); assay: Cell viability analysis, lung cancer A549; assay type: cell-based, human; settings: Homo sapiens, A549, 72 h
# [3] = test system: AGS (Gastric Adenocarcinoma); assay: Cell viability analysis, gastric cancer AGS; assay type: cell-based, human; settings: Homo sapiens, 72 h
# [4] = test system: MKN-45 (Gastric Adenocarcinoma); assay: Cell viability analysis, gastric cancer MKN-45; assay type: cell-based, human; settings: Homo sapiens, MKN-45, 72 h
# [5] = test system: HepG2 (Hepatocellular Carcinoma); assay: Cell viability analysis, hepatic cancer HepG2; assay type: cell-based, human; settings: Homo sapiens, HepG2, 72 h
# [6] = test system: Hep3B (hepatocellular carcinoma); assay: Cell viability analysis, hepatic cancer Hep3B; assay type: cell-based, human; settings: Homo sapiens, Hep3B, 72 h, read-out: The results of antibiotic drug inhibiting cancer cell lines (cell viability analysis), Hep3B
# [7] = test system: LoVo (Colorectal Adenocarcinoma); assay: Cell viability analysis, colon cancer LoVo; assay type: cell-based, human; settings: Homo sapiens, LoVo, 72 h
# [8] = test system: A375 (Amelanotic Melanoma); assay: Cell viability analysis, skin cancer A375; assay type: cell-based, human; settings: Homo sapiens, A-375, 72 h, read-out: cell viability (survival rate), A375, drug 10 μM, 72 hours, WST-1, OD450 nm
# [9] = test system: BCC (basal cell carcinoma); assay: Cell viability analysis, skin cancer BCC; assay type: cell-based, human; settings: Homo sapiens, 72 h, read-out: The results of antibiotic drug inhibiting cancer cell lines (cell viability analysis), BCC
# [10] = test system: HeLa (Cervix Adenocarcinoma); assay: Cell viability analysis, cervical cancer HeLa; assay type: cell-based, human; settings: Homo sapiens, HeLa, 72 h
# [11] = test system: C-33A (Cervical carcinoma); assay: Cell viability analysis, cervical cancer C-33A; assay type: cell-based, human; settings: Homo sapiens, C-33-A, 72 h, read-out: The results of antibiotic drug inhibiting cancer cell lines (cell viability analysis), C-33A
# [12] = test system: PC3 (p53−) (Prostate Adenocarcinoma); assay: Cell viability analysis, prostate cancer PC3; assay type: cell-based, human; settings: Homo sapiens, 72 h
# [13] = test system: TSGH-8301 (Urinary Bladder Carcinoma); assay: Cell viability analysis, bladder cancer TSGH-8301; assay type: cell-based, human; settings: Homo sapiens, 72 h
# T24 = assay: Cell viability analysis, bladder cancer T24; assay type: cell-based, human; settings: Homo sapiens, T-24, 72 h, read-out: The results of antibiotic drug inhibiting cancer cell lines (cell viability analysis), T24
# [14] = test system: MCF7 (Mammary Gland, Adenocarcinoma); assay: Cell viability analysis, breast cancer MCF7; assay type: cell-based, human; settings: Homo sapiens, MCF7, 72 h
# [15] = test system: MDA-MB-231 (Mammary Gland, Adenocarcinoma); assay: Cell viability analysis, breast cancer MDA-MB-231; assay type: cell-based, human; settings: Homo sapiens, MDA-MB-231, 72 h, read-out: The results of antibiotic drug inhibiting cancer cell lines (cell viability analysis), MDA-MB231
# BxPC-3 = assay: Cell viability analysis, pancreatic cancer BxPC-3; assay type: cell-based, human; settings: Homo sapiens, BXPC-3, 72 h, read-out: The results of antibiotic drug inhibiting cancer cell lines (cell viability analysis), BxPC-3
# AsPC-1 = assay: Cell viability analysis, pancreatic cancer AsPC-1; assay type: cell-based, human; settings: Homo sapiens, ASPC1, 72 h, read-out: The results of antibiotic drug inhibiting cancer cell lines (cell viability analysis), AsPC-1
# TOV-21G = assay: Cell viability analysis, ovarian cancer TOV-21G; assay type: cell-based, human; settings: Homo sapiens, TOV21G, 72 h, read-out: The results of antibiotic drug inhibiting cancer cell lines (cell viability analysis), TOV-21G
# [16] = test system: SAS (Tongue squamous cell carcinoma); assay: Cell viability analysis, tongue cancer SAS; assay type: cell-based, human; settings: Homo sapiens, 72 h, read-out: The results of antibiotic drug inhibiting cancer cell lines (cell viability analysis), SAS
# U-2OS = assay: Cell viability analysis, osteosarcoma U-2OS; assay type: cell-based, human; settings: Homo sapiens, U2OS, 72 h, read-out: The results of antibiotic drug inhibiting cancer cell lines (cell viability analysis), U2OS
# [17] = test system: 786-O (Renal adenocarcinoma); assay: Cell viability analysis, renal cancer 786-O; assay type: cell-based, human; settings: Homo sapiens, 786-0, 72 h, read-out: The results of antibiotic drug inhibiting cancer cell lines (cell viability analysis), 786-O
# [18] = test system: HL-60 (Acute Promyelocytic Leukemia); assay: Cell viability analysis, leukemia HL-60; assay type: cell-based, human; settings: Homo sapiens, HL-60, 72 h, read-out: cell viability (survival rate), HL-60, drug 10 μM, 72 hours, WST-1, OD450 nm
# [19] = test system: HCT116 (p53+) (Colorectal Carcinoma)
compound,measurement,setting,value
CN(C)CCC[C@@]1(c2ccc(F)cc2)OCc2cc(C#N)ccc21 [Escitalopram oxalate],inhibition effect on different cancer cell lines,cancer cell lines,significant inhibition effect
same,viability at 10 µM,"[1]; read-out: The results of antibiotic drug inhibiting cancer cell lines (cell viability analysis), H1650, H1650, repeated experiment",92.1%
same,viability at 10 µM,"[1]; read-out: cell viability (survival rate), H1650, drug 10 μM, 72 hours, WST-1, OD450 nm",80.4%
same,viability at 10 µM,"[2]; read-out: The results of antibiotic drug inhibiting cancer cell lines (cell viability analysis), A549, A549, repeated experiment",103%
same,viability at 10 µM,"[2]; read-out: cell viability (survival rate), A549, drug 10 μM, 72 hours, WST-1, OD450 nm",122%
same,viability at 10 µM,"[3]; read-out: The results of antibiotic drug inhibiting cancer cell lines (cell viability analysis), AGS, repeated experiment",145%
same,viability at 10 µM,"[3]; read-out: cell viability (survival rate), AGS, drug 10 μM, 72 hours, WST-1, OD450 nm",62.3%
same,viability at 10 µM,"[4]; read-out: The results of antibiotic drug inhibiting cancer cell lines (cell viability analysis), MKN-45, MKN-45, repeated experiment",127%
same,viability at 10 µM,"[4]; read-out: cell viability (survival rate), MKN-45, drug 10 μM, 72 hours, WST-1, OD450 nm",116%
same,viability at 10 µM,"[5]; read-out: The results of antibiotic drug inhibiting cancer cell lines (cell viability analysis), HepG2, HepG2, repeated experiment",113%
same,viability at 10 µM,"[5]; read-out: cell viability (survival rate), HepG2, drug 10 μM, 72 hours, WST-1, OD450 nm",94%
same,viability at 10 µM,[6],134%
same,viability at 10 µM,"[7]; read-out: The results of antibiotic drug inhibiting cancer cell lines (cell viability analysis), LoVo, repeated experiment",89.3%
same,viability at 10 µM,"[7]; read-out: cell viability (survival rate), LoVo, drug 10 μM, 72 hours, WST-1, OD450 nm",91.6%
same,viability at 10 µM,[8],68%
same,viability at 10 µM,[9],102%
same,viability at 10 µM,"[10]; read-out: The results of antibiotic drug inhibiting cancer cell lines (cell viability analysis), HeLa, repeated experiment",126%
same,viability at 10 µM,"[10]; read-out: cell viability (survival rate), HeLa, drug 10 μM, 72 hours, WST-1, OD450 nm",95%
same,viability at 10 µM,[11],110%
same,viability at 10 µM,"[12]; read-out: The results of antibiotic drug inhibiting cancer cell lines (cell viability analysis), PC-3, PC-3, repeated experiment",120%
same,viability at 10 µM,"[12]; read-out: cell viability (survival rate), PC3, drug 10 μM, 72 hours, WST-1, OD450 nm",79.5%
same,viability at 10 µM,"[13]; read-out: The results of antibiotic drug inhibiting cancer cell lines (cell viability analysis), TSGH-8301, TSGH-8301, repeated experiment",135%
same,viability at 10 µM,"[13]; read-out: cell viability (survival rate), TSGH, drug 10 μM, 72 hours, WST-1, OD450 nm",80.6%
same,viability at 10 µM,T24,97.7%
same,viability at 10 µM,"[14]; read-out: The results of antibiotic drug inhibiting cancer cell lines (cell viability analysis), MCF-7, MCF-7, repeated experiment",80.1%
same,viability at 10 µM,"[14]; read-out: cell viability (survival rate), MCF7, drug 10 μM, 72 hours, WST-1, OD450 nm",97.4%
same,viability at 10 µM,[15],111%
same,viability at 10 µM,BxPC-3,68.1%
same,viability at 10 µM,AsPC-1,80.3%
same,viability at 10 µM,TOV-21G,117%
same,viability at 10 µM,[16],65.3%
same,viability at 10 µM,U-2OS,62.2%
same,viability at 10 µM,[17],88.8%
same,viability at 10 µM,[18],92.7%
same,viability,[19],123%
